Data taken from patent publication US12508243B2, “Compositions and methods for treating cancer and improving epithelial homeostasis” (The Regents of the University of California, priority 2019, dated 2025).
“Also recorded” adds a separate entry of the source.

Columns and labels:
[1] = tested on: TCF/LEF luciferase reporter; assay: TCF/LEF luciferase reporter assay in transduced BEAS2B cells (CHIR-induced); type: cell-based, human
Description: BEAS2B cells (ATCC CRL-9609) were seeded in a 6-well plate and infected with Cignal lentiviral particles containing a TCF/LEF luciferase reporter (Qiagen CLS-018L). Cells were spin infected at 37° C. for one hour using a multiplicity of infection of 20. Cells were selected with 0.6 μg/mL puromycin to isolate stably expressing clones.
(§1) For luciferase reporter assays conducted outside of the high-throughput drug screen, BEAS2B cells were seeded in a 96-well plate at 20,000 cells per well. The following day, cells were with treated DMSO, 5 μM CHIR99021 (CHIR; Tocris 4423), or 5 μM CHIR plus WIC2 (Key Organics GP-0355), Coumarin (Sigma C4261), or WIC1 for 24 hours. Lysis reactions were conducted using BrightGlo (Promega E1910) and incubated for two minutes at room temperature prior to transferring luminescence reactions to white-bottom, white-walled 96-well plates (Costar). Toxicity assays were conducted by adding Cell Titer Glo reagent (Promega) following manufacturer's protocol. Luminescence readings were conducted using the Clariostar plate reader.
In light of the finding that Wnt/β-catenin signaling drives ABSC hyperproliferation, a small molecule inhibitors of the pathway that could restore airway homeostasis. A high-throughput drug screen was established to identify compounds capable of reducing TCF/LEF activity measured by a luciferase reporter induced by CHIR treatment in a 384-well format (FIG. 3A). Briefly, white-bottom 384-well plates (Greiner One) were precoated overnight with 0.01 mg/mL fibronectin from human plasma (Sigma F0895), 0.03 mg/mL rat tail collagen type I (Corning 354249), and 0.01 mg/mL BSA (ThermoFisher BP-9706) diluted in 50 uL of Airway Epithelial Cell Growth Medium (PromoCell C21060). Precoat was then aspirated and washed using 100 μL the BioTek EL406. A custom V&P pin tool mounted to a Beckman FX liquid handler was then used to pin […] of 10 mM stock compound. 2,000 BEAS2B cells per well were then seeded using the Multidrop. Cells were therefore treated with 1% DMSO, 5 μM CHIR, or 5 μM CHIR+10 μM pinned compound and incubated for 24 hours at 37° C. and 5% CO2. […] 25 μL BrightGlo (Promega) was subsequently added to each well using the BioTek EL405 and incubated for 2 minutes prior reading luminescence values with the Envision plate reader (FIG. 3B). […] Z′ factor values were used to assess assay quality and was calculated by: Z′=1-3(SD Total+SDBackground)/(MeanTotal−MeanBackground) where SDTotal and MeanTotal are the standard deviation and mean of signal for CHIR-treated wells, and SDBackground and MeanBackground are the standard deviation and mean of signal for DMSO-treated wells. The Z′ factor value was calculated to be 0.82.

BEAS2B cells [2] = assay: Cell Titer Glo toxicity assay in BEAS2B cells; type: cell-based, human
Description: as §1

mouse ABSCs (mABSCs) [3] = assay: Air-liquid interface (ALI) differentiation assay with mouse ABSCs; type: cell-based; settings: mABSCs, ALI
Description: (§2) 24-well 6.5 mm transwells with 0.4 μm pore polyester membrane inserts were coated with 0.2 mg/mL collagen type I dissolved in 60% ethanol and allowed to air dry. ABSCs were seeded at 100,000 cells per well and allowed to grow in the submerged phase of culture for 4-5 days with 500 μl media in the basal chamber and 200 μl media in the apical chamber. ALI cultures were then established and culture with only 500 μl media in the basal chamber, and cultures harvested at varying timepoints for immunofluorescence studies. Media was changed every other day and cultures were maintained at 37° C. and 5% C02. ABSCs were treated with the indicated concentrations of GSK3XV (Sigma 361558), CHIR or WIC1.
Mouse ABSCs were grown in MTEC Plus media and MTEC serum-free media during the submerged and ALI phases of culture, respectively. MTEC base media is DMEM/Ham's F12 50/50 (Corning 15090CV). Table S1 and Table S2 indicate the media components and concentrations for MTEC Plus and MTEC serum-free media, respectively.
Mouse and human ABSCs were fixed in […] for 15 minutes followed by permeabilization with 0.50% Triton-X for 10 minutes. Cells were blocked using serum-free protein block (Dako X090930) for one hour at room temperature and overnight primary antibody incubation. Secondary antibodies were incubated for 1 hour in darkness, washed, and mounted using Vectashield hardest mounting medium with DAPI (Vector Labs H-1500). IF images were obtained using an LSM780 or LSM880 Zeiss confocal microscope and composite images generated using Fiji. […]

BEAS2B cells [4] = assay: Hoechst stain toxicity assay (nuclei count) in BEAS2B cells; type: cell-based, human; settings: CHIR+10 uM compound, 24 hours
human ABSCs [5] = assay: Air-liquid interface (ALI) differentiation assay with human ABSCs; type: cell-based
Description: as §2
(§3) Mouse and human ABSCs were fixed in […] for 15 minutes followed by permeabilization with 0.50% Triton-X for 10 minutes. Cells were blocked using serum-free protein block (Dako X090930) for one hour at room temperature and overnight primary antibody incubation. Secondary antibodies were incubated for 1 hour in darkness, washed, and mounted using Vectashield hardest mounting medium with DAPI (Vector Labs H-1500). IF images were obtained using an LSM780 or LSM880 Zeiss confocal microscope and composite images generated using Fiji.
(§4) To assess whether WIC1 could reverse Wnt/β-catenin-induced ABSC hyperproliferation, human ABSCs were treated with either DMSO, CHIR, or CHIR+WIC1. […] It was then sought to determine if WIC1 could promote ABSC differentiation to ciliated cells under ALI conditions.

mouse ABSCs (mABSCs) [6] = assay: EdU proliferation assay in mouse ABSCs, submerged culture; type: cell-based; settings: 1 μM CHIR + 1 μM inhibitor, submerged culture 4 days
Description: (§5) Mouse and human ABSCs were isolated following a previously published method. Briefly, mouse tracheas were dissected, cleaned, and incubated in 16 U/mL dispase for 30 minutes (1 hour for human) at room temperature. Tracheas were then incubated in 0.5 mg/mL DNase for another 30 minutes (1 hour for human) at room temperature. Epithelium was stripped and incubated in 0.1% Trypsin-EDTA for 30 minutes (1 hour for human) shaking at 37° C. to generate a single cell suspension. Isolated cells were passed through a 40 μm strainer and stained with fluorophore-conjugated antibodies against ITGA6 and TROP2. ITGA6+ TROP2+ cells were obtained via FACS that was completed using the BD FACSAria cell sorter.
(§6) In vitro proliferation was studied using the Click-iT EdU incorporation assay kit (Invitrogen C10337) following the company's protocol. Briefly, mouse and human AB SC cultures were treated with 10 μM EdU 6-8 hours prior to commencing IFs. Cells were fixed with […] for 15 minutes followed by permeabilization in 0.5% Triton-X for 20 minutes. EdU cocktail was incubated for 30 minutes in darkness followed by immunocytochemistry.
(§7) To determine whether the pathobiology observed in human patients can be modeled in vitro, mouse ABSCs (mABSCs) were treated with GSK3β inhibitor CHIR99021 (CHIR) under submerged culture conditions for 4 days to activate canonical Wnt signaling (FIG. 2A).

Trp63 = Trp63 expression with CHIR and WIC1 treatment (FIG. 4F); type: cell-based; settings: WIC1 treatment of CHIR-induced expression
Description: (§8) RNA was isolated with the RNeasy Mini Kit (Qiagen 74104) following manufacturer's protocol and quantified using a NanoDrop Spectrophotometer (ThermoFisher). cDNA synthesis was performed using the TaqMan Reverse Transcription Reagents (ThermoFisher) as indicated by the company. qPCR was then performed using the TaqMan PCR Master Mix (Applied Biosystems) on the StepOne-Plus Real Time PCR System.

[7] = tested on: Wnt signaling target genes CCND1, MYC, CTNNB1; assay: qRT-PCR of downstream Wnt signaling target genes in ABSCs; type: cell-based, human; settings: ABSCs under ALI conditions
Description: as §8, §4

TP63 = assay: qRT-PCR of TP63 expression in BEAS2B cells; type: cell-based, human; settings: CHIR plus WIC1
Description: as §8

p-β-catenin^Y489 = assay: Immunofluorescence staining of phosphorylated β-catenin localization in ABSCs; type: cell-based, mouse; settings: WIC1 added to CHIR-treated cultures
Description: as §3, §7

human ABSCs [8] = assay: Proliferation of human ABSCs treated with DMSO, CHIR or CHIR+WIC1; type: cell-based; settings: CHIR+WIC1 vs CHIR
Description: as §5, §6, §4

Compound: CCN1CCN(c2ccc(NC(=O)c3cc4ccccc4oc3=O)cc2)CC1 [WIC1]
- TCF/LEF activity, inhibitor comparison ([1]; 100 nM and 1 μM, WIC1, MSAB, LF3, ICG001 compared): most potent inhibitor
- TCF/LEF luciferase reporter activity ([1]; CHIR-induced reporter, single treatment vs CHIR): decreased TCF/LEF luciferase reporter activity; also recorded: decreases TFC/LEF luciferase reporter activity; also recorded: suppressed TCF/LEF activity
- TCF/LEF luciferase reporter activity, dose course ([1]; CHIR-induced reporter, various concentrations): stepwise decrease in TCF/LEF activity; also recorded: Higher concentrations of WIC1 decrease TFC/LEF luciferase reporter activity to a greater extent
- Toxicity by Cell Titer Glo (BEAS2B cells [2]; 10 μM): non-toxic
- Toxicity by Cell Titer Glo (BEAS2B cells [2]; various concentrations): minimal toxicity at each concentration
- Proportion of ciliated cells (mouse ABSCs (mABSCs) [3]; 100 nM inhibitor vs DMSO): induced a greater proportion of ciliated cells
- Percentage of ciliated cells (mouse ABSCs (mABSCs) [3]; 1 μM inhibitor vs DMSO): no effect on the percentage of ciliated cells
- Toxicity by Hoechst stain (BEAS2B cells [4]): no toxicity; also recorded: minimal toxicity
- Ciliated cell differentiation (human ABSCs [5]; ABSCs, ALI, 100 nM vs DMSO): significantly induced ciliated cell differentiation; also recorded: increased differentiation to ciliated cells
- Ciliated cell differentiation (human ABSCs [5]; in vitro, concentration not given): promoted ciliated cell differentiation
- mABSC proliferation (EdU incorporation) (mouse ABSCs (mABSCs) [6]): decreased mABSC proliferation to a similar degree
- Trp63 expression (Trp63): substantially reversed
- mRNA expression of downstream Wnt signaling target genes (CCND1, MYC, CTNNB1) [7]: decreased mRNA expression
- TP63 expression (TP63): reduced
- Nuclear localization of p-β-catenin^Y489 (p-β-catenin^Y489): decreased the nuclear localization
- Human ABSC proliferation (human ABSCs [8]): significant reduction in ABSC proliferation; also recorded: reduced Wnt/β-catenin-driven human ABSC hyperproliferation
